Measured values from publication PMC11951083, “Highly Specific Miniaturized Fluorescent Monoacylglycerol Lipase Probes Enable Translational Research” (Journal of the American Chemical Society, 2025).

What was measured:
PDE4D2 (h) = PDE4D2 (h) (Homo sapiens, UniProt Q08499); test: PDE4D2 (h); settings: read-out: Inhibition PDE4D2 (h)
mMAGL = molecular target: T1, mMAGL (Mus musculus, UniProt O35678); test: Native MS (RapidFire) 2-AG substrate assay, purified mouse MAGL; assay type: biochemical; settings: purified mouse MAGL, native MS substrate assay; read-out: IC50 mMAGL
T1 sequence (O35678 1-303): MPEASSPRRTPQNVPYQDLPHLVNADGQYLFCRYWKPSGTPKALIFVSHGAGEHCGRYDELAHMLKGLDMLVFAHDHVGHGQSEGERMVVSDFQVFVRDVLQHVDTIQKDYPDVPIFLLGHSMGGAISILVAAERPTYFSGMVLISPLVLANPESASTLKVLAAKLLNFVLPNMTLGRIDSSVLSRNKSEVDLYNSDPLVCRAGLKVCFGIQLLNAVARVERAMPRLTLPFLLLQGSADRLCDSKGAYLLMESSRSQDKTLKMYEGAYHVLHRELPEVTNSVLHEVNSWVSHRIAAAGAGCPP
Protocol: (§1) In vitro MAGL Inhibition Assay
(§2) Compounds were profiled for MAGL inhibitory activity by determining the enzymatic activity by following the hydrolysis of the natural substrate 2-arachidonoylglycerol (2-AG), resulting in arachidonic acid, which can be followed by mass spectrometry. The 2-AG assay was carried out in 384 well assay plates (PP, Greiner Cat# 784201) in a total volume of 20 µL. Compound dilutions were made in 100% DMSO (VWR Chemicals 23500.297) in a polypropylene plate in 3-fold dilution steps to give a final concentration range in the assay from 12.5 µM to 0.8 pM. 0.25µL compound dilutions (100% DMSO) were added to 9 µL MAGL in assay buffer (50 mM TRIS (GIBCO, 15567-027), 1 mM EDTA (Fluka, 03690-100 mL), 0.01% (v/v) Tween. After shaking, the plate was incubated for 15 min at RT. To start the reaction, 10 µL 2-arachidonoylglycerol in assay buffer was added. The final concentrations in the assay were 50 pM MAGL and 8 µM 2-arachidonoylglyerol. After shaking and 30 min incubation at RT, the reaction was quenched by the addition of 40µL of ACN containing 4µM of d8-arachidonic acid. The amount of arachidonic acid was traced by an online SPE system (Agilent Rapidfire) coupled to a triple quadrupole mass spectrometer (Agilent 6460). A C18 SPE cartridge (G9205A) was used in an ACN/water liquid setup. The mass spectrometer was operated in negative electrospray mode following the mass transitions 303.1 → 259.1 for arachidonic acid and 311.1 → 267.0 for d8-arachidonic acid. The activity of the compounds was calculated based on the ratio of intensities [arachidonic acid / d8-arachidonic acid]. The lowest IC50 value that can be determined with high accuracy is approximately 0.025 nM.

M1 (h) = molecular target: T2, M1 (h) (Homo sapiens, UniProt P11229); test: M1 (h) (antagonist radioligand); settings: read-out: Inhibition M1 (h) (antagonist radioligand)
T2 sequence (P11229 1-460): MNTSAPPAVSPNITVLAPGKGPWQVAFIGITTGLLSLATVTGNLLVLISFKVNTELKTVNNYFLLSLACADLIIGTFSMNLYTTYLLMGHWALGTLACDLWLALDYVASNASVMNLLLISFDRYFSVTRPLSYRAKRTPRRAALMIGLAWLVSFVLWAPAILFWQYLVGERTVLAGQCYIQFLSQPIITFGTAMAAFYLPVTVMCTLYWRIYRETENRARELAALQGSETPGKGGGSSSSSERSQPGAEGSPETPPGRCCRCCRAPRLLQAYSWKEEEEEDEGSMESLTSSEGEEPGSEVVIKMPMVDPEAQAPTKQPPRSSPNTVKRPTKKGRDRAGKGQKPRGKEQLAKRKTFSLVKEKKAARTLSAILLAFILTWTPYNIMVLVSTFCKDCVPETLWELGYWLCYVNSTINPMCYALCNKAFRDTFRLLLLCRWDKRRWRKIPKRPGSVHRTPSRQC

Abl kinase (h) = Abl kinase (h) (Homo sapiens, UniProt P00519); test: Abl kinase (h); settings: read-out: Inhibition Abl kinase (h)
Chain of Abl kinase (h) (P00519 whole entry): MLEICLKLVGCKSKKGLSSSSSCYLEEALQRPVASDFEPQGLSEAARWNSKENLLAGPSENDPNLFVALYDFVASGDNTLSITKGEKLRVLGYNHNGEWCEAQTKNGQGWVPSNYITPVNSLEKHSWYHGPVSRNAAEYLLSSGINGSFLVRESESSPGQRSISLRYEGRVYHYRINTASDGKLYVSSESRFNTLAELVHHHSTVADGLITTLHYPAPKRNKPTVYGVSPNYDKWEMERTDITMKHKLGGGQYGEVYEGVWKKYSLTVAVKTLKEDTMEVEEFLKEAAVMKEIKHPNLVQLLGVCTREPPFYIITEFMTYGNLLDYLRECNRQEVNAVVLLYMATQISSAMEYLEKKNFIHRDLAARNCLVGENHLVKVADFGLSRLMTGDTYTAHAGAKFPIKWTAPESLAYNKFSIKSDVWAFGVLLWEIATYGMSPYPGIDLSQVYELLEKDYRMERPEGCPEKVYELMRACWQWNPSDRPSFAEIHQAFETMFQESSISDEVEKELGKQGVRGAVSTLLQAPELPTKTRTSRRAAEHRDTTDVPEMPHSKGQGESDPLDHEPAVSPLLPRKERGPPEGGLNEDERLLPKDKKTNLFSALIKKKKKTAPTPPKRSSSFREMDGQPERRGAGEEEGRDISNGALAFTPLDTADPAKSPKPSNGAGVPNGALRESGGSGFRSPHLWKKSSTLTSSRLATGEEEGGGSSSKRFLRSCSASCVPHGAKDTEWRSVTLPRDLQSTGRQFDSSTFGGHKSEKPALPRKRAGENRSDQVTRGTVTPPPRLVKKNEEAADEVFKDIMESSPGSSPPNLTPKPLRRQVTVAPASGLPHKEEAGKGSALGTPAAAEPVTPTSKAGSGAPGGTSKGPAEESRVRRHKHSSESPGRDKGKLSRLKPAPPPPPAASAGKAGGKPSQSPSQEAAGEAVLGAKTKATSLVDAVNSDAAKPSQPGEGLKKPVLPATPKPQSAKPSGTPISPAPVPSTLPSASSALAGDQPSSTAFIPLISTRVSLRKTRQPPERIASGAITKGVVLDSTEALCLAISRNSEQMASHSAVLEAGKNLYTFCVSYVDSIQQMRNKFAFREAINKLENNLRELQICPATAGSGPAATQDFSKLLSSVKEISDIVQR

alpha1A (h) = molecular target: T3, alpha1A (h) (Homo sapiens, UniProt P35348); test: alpha1A (h) (antagonist radioligand); settings: read-out: Inhibition alpha1A (h) (antagonist radioligand)
T3 sequence (P35348 1-466): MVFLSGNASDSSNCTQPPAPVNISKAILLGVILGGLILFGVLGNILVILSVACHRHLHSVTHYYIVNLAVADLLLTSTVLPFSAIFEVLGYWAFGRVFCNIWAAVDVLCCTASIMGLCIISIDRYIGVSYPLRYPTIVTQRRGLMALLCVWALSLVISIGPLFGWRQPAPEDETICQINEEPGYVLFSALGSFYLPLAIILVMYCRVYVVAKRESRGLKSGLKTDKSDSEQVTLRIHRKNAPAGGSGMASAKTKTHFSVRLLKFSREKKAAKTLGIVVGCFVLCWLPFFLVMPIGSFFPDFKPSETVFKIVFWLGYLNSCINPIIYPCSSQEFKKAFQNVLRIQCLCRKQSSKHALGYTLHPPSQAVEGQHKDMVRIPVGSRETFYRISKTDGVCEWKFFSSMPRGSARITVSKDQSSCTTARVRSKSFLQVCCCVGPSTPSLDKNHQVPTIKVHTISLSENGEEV

rMAGL = molecular target: T4, rMAGL (Rattus norvegicus, UniProt Q8R431); test: Native MS (RapidFire) 2-AG substrate assay, purified rat MAGL; assay type: biochemical; settings: for IC50: purified rat MAGL, native MS substrate assay, read-out: IC50 rMAGL
T4 sequence (Q8R431 1-303): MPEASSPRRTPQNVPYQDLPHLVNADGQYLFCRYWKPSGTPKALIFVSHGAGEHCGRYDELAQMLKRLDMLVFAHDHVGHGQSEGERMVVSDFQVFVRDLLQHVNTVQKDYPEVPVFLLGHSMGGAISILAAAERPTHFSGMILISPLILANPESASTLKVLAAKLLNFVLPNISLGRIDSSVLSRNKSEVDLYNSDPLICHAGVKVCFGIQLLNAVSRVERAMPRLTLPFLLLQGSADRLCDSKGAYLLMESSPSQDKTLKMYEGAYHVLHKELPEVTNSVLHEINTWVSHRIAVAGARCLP
Protocol: as §1, §2

Chain of PDE4D2 (h) (Q08499 303-809 limits assumed): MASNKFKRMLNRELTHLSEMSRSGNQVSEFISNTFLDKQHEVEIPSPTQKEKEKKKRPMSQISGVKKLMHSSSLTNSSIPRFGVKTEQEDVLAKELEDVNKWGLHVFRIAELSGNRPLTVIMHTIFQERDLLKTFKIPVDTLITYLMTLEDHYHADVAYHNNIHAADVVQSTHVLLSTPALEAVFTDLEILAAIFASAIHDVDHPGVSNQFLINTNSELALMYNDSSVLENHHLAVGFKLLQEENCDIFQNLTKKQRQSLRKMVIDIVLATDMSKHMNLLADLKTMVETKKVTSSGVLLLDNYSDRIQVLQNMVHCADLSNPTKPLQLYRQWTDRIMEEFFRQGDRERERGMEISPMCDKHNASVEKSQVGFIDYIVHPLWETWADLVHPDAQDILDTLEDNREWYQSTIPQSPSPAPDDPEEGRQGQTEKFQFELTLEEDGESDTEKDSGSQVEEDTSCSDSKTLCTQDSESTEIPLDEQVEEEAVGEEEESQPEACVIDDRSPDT

Compound: O=C(OC(C(F)(F)F)C(F)(F)F)N1CC2(CC(CC3=C4C=CC(c5ccc[nH]5)=[N+]4[B-](F)(F)n4cccc43)C2)C1 [Compound 2a]
- inhibition at 10 µM (PDE4D2 (h)): -10.8%
- IC50 (mMAGL): 0.79 nM
- inhibition at 10 µM (M1 (h)): -0.7%
- inhibition at 10 µM (Abl kinase (h)): -2.9%
- inhibition at 10 µM (alpha1A (h)): -3.4%
- IC50 (rMAGL): 0.68 nM

Compound: O=C1CO[C@H]2CCN(C(=O)N3CC4(CC(CC5=C6C=CC(c7ccc[nH]7)=[N+]6[B-](F)(F)n6cccc65)C4)C3)C[C@H]2N1 [Compound 4a]
- inhibition at 10 µM (PDE4D2 (h)): 10.8%
- IC50 (mMAGL): 0.18 nM
- inhibition at 10 µM (M1 (h)): 4%
- inhibition at 10 µM (Abl kinase (h)): -53.1%
- inhibition at 10 µM (alpha1A (h)): 45.5%
- IC50 (rMAGL): 0.47 nM

Compound: O=C(O[C@H](CO)C(F)(F)F)N1CC2(CC(CC3=C4C=CC=[N+]4[B-](F)(F)n4cccc43)C2)C1 [Compound 1]
- inhibition at 10 µM (PDE4D2 (h)): 18%
- IC50 (mMAGL): 0.21 nM
- inhibition at 10 µM (M1 (h)): 33.5%
- inhibition at 10 µM (Abl kinase (h)): -1.9%
- inhibition at 10 µM (alpha1A (h)): 7.6%
- IC50 (rMAGL): 0.36 nM

Compound: O=C(OC(C(F)(F)F)C(F)(F)F)N1CC2(CC(CC3=C4C=CC=[N+]4[B-](F)(F)n4cccc43)C2)C1 [Compound 2]
- inhibition at 10 µM (PDE4D2 (h)): -0.6%
- IC50 (mMAGL): 0.33 nM
- inhibition at 10 µM (M1 (h)): 26%
- inhibition at 10 µM (Abl kinase (h)): -10.5%
- inhibition at 10 µM (alpha1A (h)): -4.6%
- IC50 (rMAGL): 0.2 nM

Compound: O=C1CO[C@H]2CCN(C(=O)N3CC4(CC(CC5=C6C=CC=[N+]6[B-](F)(F)n6cccc65)C4)C3)C[C@H]2N1 [Compound 4]
- IC50 (mMAGL): 1.33 nM
- IC50 (rMAGL): 2.4 nM
- loss of potency against rat or cynomolgus monkey orthologs (rMAGL; rat or cynomolgus monkey MAGL): less than 4 fold

Compound: O=C(N1CC2(CC(CC3=C4C=CC=[N+]4[B-](F)(F)n4cccc43)C2)C1)N1CC2(CC(n3cnc(C4CC4)n3)C2)C1 [Compound 5]
- inhibition at 10 µM (PDE4D2 (h)): 11.3%
- IC50 (mMAGL): 1.03 nM
- inhibition at 10 µM (M1 (h)): 14.7%
- inhibition at 10 µM (Abl kinase (h)): 25.6%
- inhibition at 10 µM (alpha1A (h)): 2.1%
- IC50 (rMAGL): 0.98 nM
